Assay results as given in PubChem BioAssay AID504610 (National Center for Advancing Translational Sciences (NCATS), 2011).

Tested on: mouse plasma stability, LC-MS/MS, 48 h
Assay: Inhibitors of 12-hLO: Mouse Plasma Stability Profiling
Conditions: at 2 µM; active compounds read high
Source text: Assay Provider: Holman, T.R., University of California, Santa Cruz Grant #: MH08128301 Screening Center PI: Austin, C.P. Screening Center: NIH Chemical Genomics Center [NCGC] Human lipoxygenase 12hLO is a member of the closely related lipoxygenase family of enzymes which catalyze the site-specific oxidation of arachidonic acid to various hormone precursor molecules and as such is a candidate for drug development in a variety of disease areas, such as cancer and inflammation. After qHTS, hits were confirmed in follow-up assays, and leads were optimized through SAR. The resulting lead compound was further characterized through a battery ADME-Tox experiments, and this assay describes its stability in mouse plasma. The stability of the lead compound in […] is tested because this parameter has a significant impact on many ADME-concerned properties of drugs, such as uptake, distribution, transport, and eventually bioavailability.
2microM of compound is incubated in PBS buffer at pH 7; the reference compound is procaine. Compounds are incubated at 37 deg C for the pre-determined time periods and the when aliquots are removed. Samples are analyzed with LC-MS/MS.

percent remaining: 98.3%
Structure (SMILES): CC(=O)NC(c1cccs1)c1cc(Br)c2cccnc2c1O (stereo unspecified)
